Source: US8163702B2, “Treatment of melanoma” (SciClone Pharmaceuticals, Inc., priority 2006, dated 2012)

Tested on: murine B16 melanoma
Test: Antitumor effect in murine B16 melanoma model, tumor size and tumor weight (Example 2)
Assay type: in vivo, C57BL/6 mice
Procedure: As per aseptic tissue culture procedures, one vial of B16 melanoma cells (supplied by Cell Culture Center of CAMS) was thawed and centrifuged at 1000 rpm, 20-25° C. for 5 minutes. The cell pellets were suspended in 0.1-0.5 mL normal saline (NS) and subcutaneously injected into the right axilla of each mouse (approximately 1×10^6 cells/mouse). When the tumor diameter was 1 cm approximately (measured by vernier caliper), the animals were euthanized with CO2 asphyxiation and the tumor was excised. Tumor cells were suspended in normal saline as previously described and the cell adaptation cycle was repeated once.
On Day 0, 1×10^6 B16 cells in a volume of 0.1 mL normal saline were subcutaneously injected into the right axillary area of the mouse. The day of tumor inoculation was defined as Day 0.
Dosing was initiated on Day 1.
Observations were recorded daily for mortality and moribundity. […] The tumors were excised, separated, and weighed.
Tumor volume was calculated using the following formula: Tumor Volume=Length×Width×Width/2 Tumor volume inhibition rate (IR) was calculated according to the formula: IR(TV)=(TVvehicle−TVdrug treated)/TVvehicle×100% TV is the tumor volume on the day of measurement.
The antitumor effect of the test article was also evaluated by tumor weight. The tumor weight of each mouse was recorded after euthanasia, and the inhibition rate of tumor weight was calculated according to the formula: IR(TW)=(Tumor weightvehicle−Tumor weightdrug treated)/Tumor weightvehicle×100%

[1] = Day 9, mouse M1, SCV-07 0.1 mg/kg sc
[2] = Day 9, mouse M1, SCV-07 1.0 mg/kg sc
[3] = Day 9, mouse M1, SCV-07 5.0 mg/kg sc
[4] = Day 9, mouse M2, SCV-07 0.01 mg/kg sc
[5] = Day 9, mouse M2, SCV-07 1.0 mg/kg sc
[6] = Day 9, mouse M3, SCV-07 0.01 mg/kg sc
[7] = Day 9, mouse M3, SCV-07 1.0 mg/kg sc
[8] = Day 9, mouse M3, SCV-07 5.0 mg/kg sc
[9] = Day 9, mouse M4, SCV-07 0.1 mg/kg sc
[10] = Day 9, mouse M4, SCV-07 1.0 mg/kg sc
[11] = Day 9, mouse M4, SCV-07 5.0 mg/kg sc
[12] = Day 9, mouse M5, SCV-07 0.01 mg/kg sc
[13] = Day 9, mouse M5, SCV-07 0.1 mg/kg sc
[14] = Day 12, SCV-07 0.01 mg/kg/day sc
[15] = Day 12, SCV-07 0.1 mg/kg/day sc
[16] = Day 12, SCV-07 1.0 mg/kg/day sc
[17] = Day 12, SCV-07 5.0 mg/kg/day sc
[18] = Day 12, mouse F1, SCV-07 0.01 mg/kg sc
[19] = Day 12, mouse F1, SCV-07 0.1 mg/kg sc
[20] = Day 12, mouse F1, SCV-07 1.0 mg/kg sc
[21] = Day 12, mouse F1, SCV-07 5.0 mg/kg sc
[22] = Day 12, mouse F2, SCV-07 0.01 mg/kg sc
[23] = Day 12, mouse F2, SCV-07 0.1 mg/kg sc
[24] = Day 12, mouse F2, SCV-07 1.0 mg/kg sc

N[C@H](CCC(=O)N[C@@H](Cc1c[nH]c2ccccc12)C(=O)O)C(=O)O [SCV-07, γ-D-glutamyl-L-tryptophan]
Tumor measurements W [1]: 0.3 cm
Tumor volumes [1]: 0.01 cm^3
Tumor measurements L [2]: 0.3 cm
Tumor measurements W [2]: 0.3 cm
Tumor volumes [2]: 0.01 cm^3
Tumor measurements L [3]: 0.5 cm
Tumor measurements W [3]: 0.5 cm
Tumor volumes [3]: 0.06 cm^3
Tumor measurements L [4]: 0.4 cm
Tumor measurements W [4]: 0.4 cm
Tumor volumes [4]: 0.03 cm^3
Tumor volumes (Day 9, mouse M2, SCV-07 0.1 mg/kg sc): 0.00 cm^3
Tumor measurements L [5]: 0.5 cm
Tumor measurements W [5]: 0.5 cm
Tumor volumes [5]: 0.06 cm^3
Tumor measurements L [6]: 0.4 cm
Tumor measurements W [6]: 0.3 cm
Tumor volumes [6]: 0.02 cm^3
Tumor volumes (Day 9, mouse M3, SCV-07 0.1 mg/kg sc): 0.00 cm^3
Tumor measurements L [7]: 0.3 cm
Tumor measurements W [7]: 0.3 cm
Tumor volumes [7]: 0.01 cm^3
Tumor measurements L [8]: 0.5 cm
Tumor measurements W [8]: 0.5 cm
Tumor volumes [8]: 0.06 cm^3
Tumor measurements L [9]: 0.3 cm
Tumor measurements W [9]: 0.3 cm
Tumor volumes [9]: 0.01 cm^3
Tumor measurements L [10]: 0.3 cm
Tumor measurements W [10]: 0.3 cm
Tumor volumes [10]: 0.01 cm^3
Tumor measurements L [11]: 0.5 cm
Tumor measurements W [11]: 0.5 cm
Tumor volumes [11]: 0.06 cm^3
Tumor measurements L [12]: 0.5 cm
Tumor measurements W [12]: 0.5 cm
Tumor volumes [12]: 0.06 cm^3
Tumor measurements L [13]: 0.5 cm
Tumor measurements W [13]: 0.5 cm
Tumor volumes [13]: 0.06 cm^3
IR (tumor volume inhibition rate) [14]: 51.2%
Tumor Volume (Mean ± SD) [14]: 0.368 ± 0.223 cm^3
IR (tumor volume inhibition rate) [15]: 37.7%
Tumor Volume (Mean ± SD) [15]: 0.469 ± 0.199 cm^3
IR (tumor volume inhibition rate) [16]: 61.3%
Tumor Volume (Mean ± SD) [16]: 0.292 ± 0.169 cm^3
IR (tumor volume inhibition rate) [17]: 54.9%
Tumor Volume (Mean ± SD) [17]: 0.340 ± 0.195 cm^3
Tumor measurements L [18]: 0.1 cm
Tumor measurements W [18]: 0.1 cm
Tumor volumes [18]: 5E−04 cm^3
Tumor measurements L [19]: 1.0 cm
Tumor measurements W [19]: 1.0 cm
Tumor volumes [19]: 0.50 cm^3
Tumor measurements L [20]: 1.0 cm
Tumor measurements W [20]: 0.7 cm
Tumor volumes [20]: 0.25 cm^3
Tumor measurements L [21]: 1.0 cm
Tumor measurements W [21]: 0.9 cm
Tumor volumes [21]: 0.41 cm^3
Tumor measurements L [22]: 1.0 cm
Tumor measurements W [22]: 0.7 cm
Tumor volumes [22]: 0.25 cm^3
Tumor measurements L [23]: 1.0 cm
Tumor measurements W [23]: 1.0 cm
Tumor volumes [23]: 0.50 cm^3
Tumor measurements L [24]: 0.9 cm
Tumor measurements W [24]: 0.9 cm
Tumor volumes [24]: 0.36 cm^3
